Results: PMC7863721, “Plasticity of Carbohydrate Transport at the Blood-Brain Barrier” (Frontiers in Behavioral Neuroscience, 2021)

Assays:
[1] = biological target: T1, MFS3 (Major Facilitator Superfamily Transporter 3); MFS3-3xHA (Drosophila melanogaster, UniProt Q9VPX2); test: […]-sugar uptake into cRNA-injected Xenopus oocytes, net flux over native oocytes; format: cell-based; settings: labelled compound; pH 7.2, 60 min; concentration series; no reliable Km or Vmax obtained
T1 construct: b38 prints CG4762, apparently a misprint of CG4726
T1 sequence (Q9VPX2 1-512): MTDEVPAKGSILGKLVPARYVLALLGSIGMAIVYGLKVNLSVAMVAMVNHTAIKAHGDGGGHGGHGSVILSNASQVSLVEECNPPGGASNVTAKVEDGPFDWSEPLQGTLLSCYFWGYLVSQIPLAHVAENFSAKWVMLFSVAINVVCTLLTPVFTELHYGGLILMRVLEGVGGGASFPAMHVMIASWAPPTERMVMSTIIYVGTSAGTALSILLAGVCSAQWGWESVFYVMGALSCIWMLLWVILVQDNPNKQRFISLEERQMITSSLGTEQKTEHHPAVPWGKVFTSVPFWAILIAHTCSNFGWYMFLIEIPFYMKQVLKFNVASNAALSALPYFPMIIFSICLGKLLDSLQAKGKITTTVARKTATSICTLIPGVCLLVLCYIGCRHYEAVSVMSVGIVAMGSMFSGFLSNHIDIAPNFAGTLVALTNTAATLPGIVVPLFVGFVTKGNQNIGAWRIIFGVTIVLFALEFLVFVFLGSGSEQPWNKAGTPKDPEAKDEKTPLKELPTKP

[2] = biological target: T2, Pippin (CG4797); Pippin-3xHA (Drosophila melanogaster, UniProt Q8MLQ7); test: as above; format: cell-based; settings: labelled compound; pH 7.2, 60 min; concentration series; no reliable Km or Vmax obtained
T2 sequence (Q8MLQ7 1-533): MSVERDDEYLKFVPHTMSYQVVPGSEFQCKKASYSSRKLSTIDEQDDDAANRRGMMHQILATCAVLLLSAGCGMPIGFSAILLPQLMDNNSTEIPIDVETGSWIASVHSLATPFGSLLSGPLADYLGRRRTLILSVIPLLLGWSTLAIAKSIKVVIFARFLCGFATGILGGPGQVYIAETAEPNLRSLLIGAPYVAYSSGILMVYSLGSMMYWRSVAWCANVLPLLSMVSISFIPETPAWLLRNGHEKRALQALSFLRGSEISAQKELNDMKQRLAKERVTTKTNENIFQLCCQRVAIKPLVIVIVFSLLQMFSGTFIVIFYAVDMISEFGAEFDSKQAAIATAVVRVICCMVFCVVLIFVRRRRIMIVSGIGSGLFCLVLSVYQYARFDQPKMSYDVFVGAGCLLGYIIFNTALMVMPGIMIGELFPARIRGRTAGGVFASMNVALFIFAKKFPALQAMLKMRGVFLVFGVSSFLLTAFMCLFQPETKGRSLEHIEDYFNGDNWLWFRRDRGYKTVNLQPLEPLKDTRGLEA

Row | SMILES | 14C-sugar uptake into cRNA-injected Xenopus oocytes, net flux over native oocyte [1] | 14C-sugar uptake into cRNA-injected Xenopus oocytes, net flux over native oocyte [2]
1 | OC[C@H]1OC(O)[C@H](O)[C@@H](O)[C@@H]1O (stereo partly shown) [glucose] | both Pippin and MFS3 facilitate uptake of glucose and trehalose efficiently | both Pippin and MFS3 facilitate uptake of glucose and trehalose efficiently
2 | OC[C@H]1O[C@H](O[C@H]2O[C@H](CO)[C@@H](O)[C@H](O)[C@H]2O)[C@H](O)[C@@H](O)[C@@H]1O [trehalose] | both Pippin and MFS3 facilitate uptake of glucose and trehalose efficiently | both Pippin and MFS3 facilitate uptake of glucose and trehalose efficiently
